For one experiment, the target named is human orexin-2 receptor (Homo sapiens (Human), UniProt O43614). In words: FLIPR Ca2+ flux assay, orexin-2 receptor. It is filed as cell-based. The following applies: CHO cells expressing human orexin-2 receptor; agonist 70 pM Ala-6,12 orexin-A; read-out: hOX2R FLIPR IC50. The protocol:
The utility of the compounds in accordance with the present invention as orexin receptor OX1R and/or OX2R antagonists may be readily determined without undue experimentation by methodology well known in the art, including the “FLIPR Ca^2+ Flux Assay” (Okumura et al., Biochem. Biophys. Res. Comm. 280:976-981, 2001). In a typical experiment the OX1 and OX2 receptor antagonistic activity of the compounds of the present invention was determined in accordance with the following experimental method. For intracellular calcium measurements, Chinese hamster ovary (CHO) cells expressing the rat orexin-1 receptor or the human orexin-2 receptor, are grown in Iscove's modified DMEM containing 2 mM L-glutamine, […], 1% hypoxanthine-thymidine supplement, 100 U/ml penicillin, 100 μg/ml streptomycin and 10% heat-inactivated fetal calf serum (FCS). The cells are seeded at 20,000 cells/well into Becton-Dickinson black 384-well clear bottom sterile plates coated with poly-D-lysine. All reagents were from GIBCO-Invitrogen Corp. The seeded plates are incubated overnight at 37° C. and 5% CO2. Ala-6,12 human orexin-A as the agonist is prepared as a 1 mM stock solution in 1% bovine serum albumin (BSA) and diluted in assay buffer (HBSS containing 20 mM HEPES, 0.1% BSA and 2.5 mM probenecid, pH7.4) for use in the assay at a final concentration of 70 pM. Test compounds are prepared as 10 mM stock solution in DMSO, then diluted in 384-well plates, first in DMSO, then assay buffer. On the day of the assay, cells are washed 3 times with 100 μl assay buffer and then incubated for 60 min (37° C., 5% CO2) in 60 μl assay buffer containing 1 μM Fluo-4AM ester, 0.02% pluronic acid, and 1% BSA. The dye loading solution is then aspirated and cells are washed 3 times with 100 μl assay buffer. 30 μl of that same buffer is left in each well. Within the Fluorescent Imaging Plate Reader (FLIPR, Molecular Devices), test compounds are added to the plate in a volume of 25 μl, incubated for 5 min and finally 25 μl of agonist is added. Fluorescence is measured for each well at 1 second intervals for 5 minutes and the height of each fluorescence peak is compared to the height of the fluorescence peak induced by 70 pM Ala-6,12 orexin-A with buffer in place of antagonist. For each antagonist, IC50 value (the concentration of compound needed to inhibit 50% of the agonist response) is determined. Alternatively, compound potency can be assessed by a radioligand binding assay (described in Bergman et. al. Bioorg. Med. Chem. Lett. 2008, 18, 1425-1430) in which the inhibition constant (Ki) is determined in membranes prepared from CHO cells expressing either the OX1 or OX2 receptor. The intrinsic orexin receptor antagonist activity of a compound which may be used in the present invention may be determined by these assays.

The target in another experiment is hOX1R (Homo sapiens, UniProt O43613). In words: FLIPR Ca2+ flux assay, orexin-1 receptor. It is filed as cell-based. The following applies: CHO cells expressing orexin-1 receptor; agonist 70 pM Ala-6,12 orexin-A.

pIC50: −log10 of the molar value.

human orexin-2 receptor, sequence (O43614 whole entry): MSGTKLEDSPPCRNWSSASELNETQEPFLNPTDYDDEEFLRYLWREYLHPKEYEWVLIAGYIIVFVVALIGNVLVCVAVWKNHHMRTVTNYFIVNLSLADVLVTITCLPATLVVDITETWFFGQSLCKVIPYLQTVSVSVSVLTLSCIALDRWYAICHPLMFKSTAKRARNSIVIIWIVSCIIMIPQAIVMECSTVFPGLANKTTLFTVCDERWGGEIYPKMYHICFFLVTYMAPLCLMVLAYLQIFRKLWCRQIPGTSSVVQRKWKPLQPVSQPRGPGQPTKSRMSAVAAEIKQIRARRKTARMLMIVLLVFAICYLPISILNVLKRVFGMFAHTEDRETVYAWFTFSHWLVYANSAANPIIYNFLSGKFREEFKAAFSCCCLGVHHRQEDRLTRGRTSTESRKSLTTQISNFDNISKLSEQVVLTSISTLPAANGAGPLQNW

One may read the pIC50 as the IC50 on a negative log10 scale, so that one unit is a factor of ten. Take `COc1ccnc(O[C@@H]2CC[C@@H](C)N(C(=O)c3ccccc3-n3nccn3)C2)c1F` [Example 49, 3-Fluoro-4-methoxy-2-{[(3R,6R)-6-methyl-1-{[2-(2H-1,2,3-triazol-2-yl)phenyl]carbonyl}piperidin-3-yl]oxy}pyridine]: the negative logarithm of the IC50 (pIC50) is 7.15 on human orexin-2 receptor and 5.00 at hOX1R.

On to `COc1ccnc(O[C@@H]2CC[C@@H](C)N(C(=O)c3ccccc3-n3nccn3)C2)c1C=O` [Example 50, 4-Methoxy-2-{[(3R,6R)-6-methyl-1-{[2-(2H-1,2,3-triazol-2-yl)phenyl]carbonyl}piperidin-3-yl]oxy}pyridine-3-carbaldehyde], for which the figures for the negative logarithm of the IC50 (pIC50) at human orexin-2 receptor and on hOX1R were 7.43 and 5.17, respectively.

As for `COc1ccnc(O[C@@H]2CC[C@@H](C)N(C(=O)c3ccccc3-n3nccn3)C2)c1C(C)=O` [Example 51, 1-(4-methoxy-2-{[(3R,6R)-6-methyl-1-{[2-(2H-1,2,3-triazol-2-yl)phenyl]carbonyl}piperidin-3-yl]oxy}pyridin-3-yl)ethanone], the results for the pIC50 at human orexin-2 receptor and at hOX1R were 7.91 and 6.01, respectively.

For `C[C@@H]1CC[C@@H](Oc2cc(OC(F)F)ccn2)CN1C(=O)c1ccccc1-n1nccn1` [Example 52, (2-(2H-1,2,3-Triazol-2-yl)phenyl)((2R,5R)-5-((4-(difluoromethoxy)pyridin-2-yl)oxy)-2-methylpiperidin-1-yl)methanone], the results for the pIC50 at human orexin-2 receptor and at hOX1R were 8.40 and 6.71, respectively.

For the compound `C[C@@H]1CC[C@@H](Oc2cc(OCF)ccn2)CN1C(=O)c1ccccc1-n1nccn1` [Example 53, (2-(2H-1,2,3-Triazol-2-yl)phenyl)((2R,5R)-5-((4-(fluoromethoxy)pyridin-2-yl)oxy)-2-methylpiperidin-1-yl)methanone], the values for the pIC50 on human orexin-2 receptor and at hOX1R were 8.10 and 6.31, respectively.

Consider `C[C@@H]1CC[C@@H](Oc2cc(OC(F)F)ccn2)CN1C(=O)c1ccsc1-n1nccn1` [Example 54, (2-(2H-1,2,3-Triazol-2-yl)thiophen-3-yl)((2R,5R)-5-((4-(difluoromethoxy)pyridin-2-yl)oxy)-2-methylpiperidin-1-yl)methanone], for which the pIC50 is 7.96 at human orexin-2 receptor and 5.99 at hOX1R.

Take `C[C@@H]1CC[C@@H](Oc2cc(OC(F)F)ccn2)CN1C(=O)c1cscc1-n1nccn1` [Example 55, 4-(difluoromethoxy)-2-{[(3R,6R)-6-methyl-1-{[4-(2H-1,2,3-triazol-2-yl)thiophen-3-yl]carbonyl}piperidin-3-yl]oxy}pyridine]: the results for the pIC50 on human orexin-2 receptor and at hOX1R were 7.89 and 5.75, respectively.

With `C[C@@H]1CC[C@@H](Oc2cc(OC(F)F)ccn2)CN1C(=O)c1ccccc1C1(C#N)CC1` [Example 56, 1-(2-{[(2R,5R)-5-{[4-(difluoromethoxy)pyridin-2-yl]oxy}-2-methylpiperidin-1-yl]carbonyl}phenyl) cyclopropane-carbonitrile], the negative-log IC50 (pIC50) is 7.96 on human orexin-2 receptor and 5.94 on hOX1R.

For `C[C@@H]1CC[C@@H](Oc2cc(OC(F)F)ccn2)CN1C(=O)c1ccccc1-n1ncnn1` [Example 57, 4-(difluoromethoxy)-2-{[(3R,6R)-6-methyl-1-{[2-(2H-tetrazol-2-yl)phenyl]carbonyl}piperidin-3-yl]oxy}pyridine], the pIC50 at human orexin-2 receptor is 7.96; at hOX1R it was 5.77.

As for `COc1ccnc(O[C@@H]2CC[C@@H](C)N(C(=O)c3ccsc3-c3ncccn3)C2)c1` [Example 58, ((2R,5R)-5-((4-Methoxypyridin-2-yl)oxy)-2-methylpiperidin-1-yl)(2-(pyrimidin-2-yl)thiophen-3-yl)methanone], the negative-log IC50 (pIC50) on human orexin-2 receptor was 7.68; at hOX1R it was 5.96.

As to `C[C@@H]1CC[C@@H](Oc2cc(OCC(F)F)ccn2)CN1C(=O)c1ccsc1-n1nccn1` [Example 60, (2-(2H-1,2,3-Triazol-2-yl)thiophen-3-yl)((2R,5R)-5-((4-(2,2-difluoroethoxy)pyridin-2-yl)oxy)-2-methylpiperidin-1-yl)methanone], the figures for the pIC50 at human orexin-2 receptor and on hOX1R were 7.66 and 5.70, respectively.

Consider `CC(C)Oc1ccnc(O[C@@H]2CC[C@@H](C)N(C(=O)c3ccsc3-n3nccn3)C2)c1` [Example 61, 4-(1-methylethoxy)-2-{[(3R,6R)-6-methyl-1-{[2-(2H-1,2,3-triazol-2-yl)thiophen-3-yl]carbonyl}piperidin-3-yl]oxy}pyridine], for which the figures for the pIC50 on human orexin-2 receptor and on hOX1R were 7.60 and 5.83, respectively.

Take `CCOc1ccnc(O[C@@H]2CC[C@@H](C)N(C(=O)c3ccsc3-n3nccn3)C2)c1` [Example 62, 4-ethoxy-2-{[(3R,6R)-6-methyl-1-{[2-(2H-1,2,3-triazol-2-yl)thiophen-3-yl]carbonyl}piperidin-3-yl]oxy}pyridine]: the values for the pIC50 on human orexin-2 receptor and at hOX1R were 7.66 and 5.93, respectively.

Consider `C[C@@H]1CC[C@@H](Oc2cc(OCC(F)(F)F)ccn2)CN1C(=O)c1ccsc1-n1nccn1` [Example 63, 2-{[(3R,6R)-6-methyl-1-{[2-(2H-1,2,3-triazol-2-yl)thiophen-3-yl]carbonyl}piperidin-3-yl]oxy}-4-(2,2,2-trifluoroethoxy) pyridine], for which the pIC50 at human orexin-2 receptor was 7.26; on hOX1R, 5.08.

In the case of `C[C@@H]1CC[C@@H](Oc2cc(OCC(F)F)ccn2)CN1C(=O)c1ccsc1-c1ncccn1` [Example 64, ((2R,5R)-5-((4-(2,2-Difluoroethoxy)pyridin-2-yl)oxy)-2-methylpiperidin-1-yl)(2-(pyrimidin-2-yl)thiophen-3-yl)methanone], the results for the negative-log IC50 (pIC50) at human orexin-2 receptor and on hOX1R were 7.44 and 5.28, respectively.

In the case of `CCOc1ccnc(O[C@@H]2CC[C@@H](C)N(C(=O)c3ccsc3-c3ncccn3)C2)c1` [Example 65, ((2R,5R)-5-(4-Ethoxypyridin-2-yloxy)-2-methylpiperidin-1-yl)(2-(pyrimidin-2-yl)thiophen-3-yl)methanone], the pIC50 on human orexin-2 receptor is 7.59; at hOX1R, 6.05.

Take `C[C@@H]1CC[C@@H](Oc2cc(OCC(F)(F)F)ccn2)CN1C(=O)c1ccsc1-c1ncccn1` [Example 66, 2-(3-{[(2R,5R)-2-methyl-5-{[4-(2,2,2-trifluoroethoxy)pyridin-2-yl]oxy}piperidin-1-yl]carbonyl}thiophen 2-yl)pyrimidine]: the negative-log IC50 (pIC50) is 7.59 at human orexin-2 receptor and 5.68 on hOX1R.
